How the values were obtained:
32 mouse cytokines = test: LPS-induced mouse cytokines in plasma of humanized mice (Mouse Cytokine 32-Plex Discovery Assay), Example 2; assay type: in vivo, humanized CIEA NOG-EXL mice; conditions: 30 mg/kg p.o. 1 hr before LPS; plasma 6 hrs after LPS
Text: (§1) To test the effect of CDK8/19 inhibition on LPS-induced cytokine expression in human immune cells, we carried out a study on humanized mice transplanted with human hematopoietic stem cells; such mice contain human blood cells of myeloid and lymphoid lineages as well as mouse blood cells. We have used CIEA NOG-EXL mice (Taconic model #13395) engrafted with human umbilical cord blood-derived CD34+ hematopoietic stem cells 21 weeks before the study. All the mice were female, 25-27 weeks old, and had >45% hCD45+ cells in blood. Eight mice were treated with 1 mg/kg LPS i.p.; this dose was selected based on the finding of (38) that 12.5 μg (˜0.5 mg/kg) produced stronger cytokine induction than 50 μg (˜2 mg/kg) in humanized mice. The first group of LPS-treated mice (n=3) (G1) received vehicle alone by oral gavage 1 hr before LPS, the second group (n=3) received 15u at 30 mg/kg by oral gavage 1 hr before LPS, and the third group (n=2) (G3) received 15u at 30 mg/kg by oral gavage 0.5 hrs after LPS. Blood samples were collected from each mouse one week before LPS dosing. Mice were euthanized 6 hrs after LPS dosing and terminal blood samples were collected for cytokine analysis; in addition, spleens were collected for RNA analysis.
We have also used the same plasma samples (at 1:100 dilution) to measure the expression of 32 mouse cytokines using Mouse Cytokine 32-Plex Discovery Assay (Eve Technologies).

[1] = tested on: mouse cytokines associated with cytokine storm (Table 1); test: RNA-Seq of spleens of LPS-treated humanized mice, mouse cytokines associated with cytokine storm; assay type: in vivo, humanized CIEA NOG-EXL mice (mouse transcripts); conditions: 6 hrs after LPS
Text: as §1
(§2) RNA from spleens of mice of G1-3, euthanized 6 hrs after LPS dosing, was analyzed by RNA-Seq. […]

panel of 468 kinases = conditions: at 2000 nM, cited from earlier work
48 human cytokines [2] = test: LPS-induced human cytokines in plasma of humanized mice (Human Cytokine 48-Plex Discovery Assay), Example 3; assay type: in vivo; conditions: for induction of human proinflammatory cytokines by LPS: 15u 30 mg/kg p.o. or BI-1347 10 mg/kg p.o., LPS 1 mg/kg i.p., plasma 6 hrs after LPS
Experimental: Mice were randomized into 6 groups (n=4-5), Group 1 being untreated control, Group 2 receiving 15u (a.k.a. SNX) (30 mg/kg p.o., administered as in example 2), Group 3 receiving LPS (1 mg/kg i.p.), Group 4 receiving LPS plus 15u administered 1 hr before LPS, Group 5 receiving LPS plus 15u administered 0.5 hr after LPS, and Group 6 receiving LPS plus CDK8/19 inhibitor BI-1347 (28) (10 mg/kg dissolved in 30% Propylene Glycol/70% PEG-400, p.o.) administered 1 hr before LPS. Mice were euthanized 6 hrs after LPS dosing and terminal blood samples were collected for cytokine analysis. As in Example 2, the effects of LPS and 15u on the expression of 48 human cytokines were measured using Human Cytokine 48-Plex Discovery Assay (Eve Technologies) using plasma samples at 1:100 dilution. The results of this analysis are shown in FIG. 5 for those cytokines that were induced by LPS. To assure more accurate assessment of effects of CDK8/19 inhibition on LPS-induced cytokines, 4 LPS-treated animals with low serum level (below 100 pg/mL) of IL-10, the cytokine whose LPS-mediated induction is not decreased by CDK8/19 inhibition, were excluded from the analysis (the low levels of cytokines in such animals are possibly due to insufficient administration of LPS). In this study, fewer cytokines (19 of 48) were induced by LPS than in Example 2, with many cytokines showing apparently higher expression levels in untreated mice possibly reflecting an inflammatory process that could have developed in humanized mice at the late time point (25-26 weeks) after the transplantation of CD34+ hematopoietic stem cells. Nevertheless, as in example 2, the induction of most of the LPS-induced cytokines was decreased by CDK8/19 inhibitor treatment (FIG. 5), including G-CSF, IFN-γ, IL-1 (α and β), IL-6, IL-8, MIG/CXCL9, MCP-1, MIP-1β and TNF (α and β) and IP-10. Among LPS-induced cytokines, only anti-inflammatory IL-10 was induced to a greater degree with than without CDK8/19 inhibitor treatment, an indication of anti-inflammatory activity. […]

[3] = tested on: mouse cytokines: IL-1β, IL-6, IL-10, MCP-1 and TNF-α; test: LPS-induced cytokine expression in plasma of C57BL/6 mice (MSD U-plex custom panel); assay type: in vivo, C57BL/6 male mice; conditions: 30 mg/kg oral gavage 2 hrs prior to LPS 10 mg/kg i.p.; plasma 2 hrs and 6 hrs after LPS
Experimental: Cytokine storm was induced in C57BL/6 male mice by intraperitoneal (i.p.) injection of LPS (10 mg/kg). Two groups of LPS-treated mice (n=5) received 30 mg/kg 15u dissolved in 30% Propylene Glycol, 70% PEG-400 or vehicle control (5 mice per group), via oral gavage 2 hrs prior to LPS dosing. Blood was collected immediately before LPS dosing, 2 hrs after LPS and 6 hrs after LPS (at which time point the animals were euthanized). Plasma samples (1:100 dilution for 2 hr and 6 hr samples, 1:5 dilution for pre-LPS samples) were used to analyze the cytokines with the MSD U-plex custom panel for the following mouse cytokines: IL-1β, IL-6, IL-10, MCP-1 and TNF-α.

48 human cytokines [4] = test: LPS-induced human cytokines in plasma of humanized mice (Human Cytokine 48-Plex Discovery Assay), Example 2; assay type: in vivo; conditions: plasma 6 hrs after LPS
Text: as §1
The effects of LPS and 15u on the expression of 48 human cytokines were measured using Human Cytokine 48-Plex Discovery Assay (Eve Technologies) using plasma samples at 1:100 dilution. […] The results of this analysis are shown in FIG. 2 for 33 of 48 cytokines that were induced by LPS>2-fold (cytokine plots are shown in the order of fold induction by LPS). […] These included 14 mediators of cytokine storm listed in Table 1: GM-CSF, IFN-γ, IL-1 (α and β), IL-6, IL-8, IL-12 (p40 and p70), IL-18, MIG/CXCL9, MIP-1 (α and β) and TNF (α and β).

[5] = tested on: human cytokines associated with cytokine storm (Table 1); test: RNA-Seq of spleens of LPS-treated humanized mice, human cytokines associated with cytokine storm; assay type: in vivo, humanized CIEA NOG-EXL mice (human transcripts); conditions: 6 hrs after LPS
Text: as §1, §2

CN(C)C(=O)c1ccc(N2CCCN(c3ccnc4sc(C(N)=O)c(N)c34)CC2)cc1 [15u, 3-amino-4-(4-(4 (dimethylcarbamoyl)phenyl)-1,4-diazepan-1-yl)thieno[2,3-b]pyridine-2-carboxamide]
LPS-induced mouse IL-7 (32 mouse cytokines): weakly inhibited | LPS-induced mouse IL-10 (32 mouse cytokines): over-induced | effect on LPS-induced mouse cytokines (27 of 32 induced) (32 mouse cytokines): most of them were unaffected | number of mouse cytokines with decreased RNA in spleen ([1]; 15u-treated G2 or G3 relative to G1): 3 of 27 | number of mouse cytokines (including TNF and IL-10) with elevated RNA in spleen ([1]; G2 and especially G3 relative to G1): 7 | S(35) S-score (panel of 468 kinases; S(#)=(number of non-mutant kinases with % Ctrl<#)/(number tested)): less than 0.02 | S(10) S-score (panel of 468 kinases): < 0.004 | suppression of proinflammatory cytokine induction, 15u administered 0.5 hours after LPS compared with 1 hour before LPS (48 human cytokines [2]; 30 mg/kg p.o., in most cases): stronger | induction of human proinflammatory cytokines by LPS (48 human cytokines [2]): suppressed | effect on LPS-induced expression of the assayed cytokines (IL-1β, IL-6, IL-10, MCP-1, TNF-α) [3]: no significant effect | number of the most strongly LPS-induced human cytokines whose induction was suppressed (48 human cytokines [4]; 30 mg/kg oral gavage 1 hr before LPS 1 mg/kg i.p.): 24 of 27 | LPS-induced human IP-10 (48 human cytokines [4]; 30 mg/kg p.o. 1 hr before LPS): not inhibited | LPS-induced human MCP-1 (48 human cytokines [4]; 30 mg/kg p.o. 1 hr before LPS): not inhibited | LPS-induced human anti-inflammatory IL-10 (48 human cytokines [4]; 30 mg/kg p.o. 1 hr before LPS): only borderline inhibition | over-induction of human IL-10 (48 human cytokines [4]; 30 mg/kg p.o. 1 hr before LPS): not over-induced | induction of 14 mediators of cytokine storm: GM-CSF, IFN-γ, IL-1 (α and β), IL-6, IL-8, IL-12 (p40 and p70), IL-18, MIG/CXCL9, MIP-1 (α and β), TNF (α and β) (48 human cytokines [4]; human cytokines, 30 mg/kg p.o. 1 hr before LPS): suppressed | number of human cytokines with decreased RNA amounts in spleen ([5]; 15u 30 mg/kg p.o. administered after LPS (G3) vs LPS alone (G1)): 15 of 26 | number of human cytokines with decreased RNA amounts in spleen ([5]; 15u 30 mg/kg p.o. administered before LPS (G2) vs LPS alone (G1)): 18 of 26

CN(C)C(=O)Cn1cc(-c2ccc(-c3cncc4ccccc34)cc2)cn1 [BI-1347, 2-(4-(4-(isoquinolin-4-yl)phenyl)-1H-pyrazol-1-yl)-N,N-dimethylacetamide, reference compound]
induction of human proinflammatory cytokines by LPS (48 human cytokines [2]): broadly suppressed
